Our source for the Activity values is ChEMBL document CHEMBL1148108, “Prenylated isoflavonoids from the root bark of Erythrina vogelii” (J Nat Prod, 2002).

The source made the active and inactive calls. No cut-off for these calls is given here.

The subject of this test is Cladosporium cucumerinum. The test can be described thus: Antifungal activity against Cladosporium cucumerinum by TLC biautography assay. The class given is functional, organism-based.

With `COc1cc(O)c(CC=C(C)C)cc1-c1coc2cc(O)cc(O)c2c1=O`, the result was inactive.

Consider `COc1ccc([C@@H]2COc3cc(O)c(CC=C(C)C)c(O)c3C2=O)cc1CC=C(C)C`, for which the result was inactive.

With `CC(C)=CCc1c(O)cc(O)c2c(=O)c(-c3ccc4c(c3)C=CC(C)(C)O4)coc12`, the result was inactive.

With `CC(C)=CCc1c(O)cc2occ(-c3ccc4c(c3)C=CC(C)(C)O4)c(=O)c2c1O`, the result was inactive.

As for `C/C(=C\Cc1cc(-c2coc3cc(O)cc(O)c3c2=O)ccc1O)CO`, the outcome was inactive.

As to `CC(C)=CCc1cc(-c2coc3cc(O)cc(O)c3c2=O)cc2c1OC(C)(C)C(O)C2` (configuration not stated), the outcome was inactive.

With `CC1(C)Oc2ccc(-c3coc4cc(O)cc(O)c4c3=O)cc2C[C@@H]1O`, the result was inactive.
